Key:
CXCR3 = molecular target: T1, CXCR3 (Homo sapiens, UniProt P49682); assay: Positive allosteric modulator assay method 2 (PAM2), CXCR3-bla U2OS; format: cell-based; set-up: TEV protease site; Gal4-VP16 transcription factor ('Ga14-VP16' [sic]); Tango cell line; host or cells: Tango GPCR-bla U2OS; details: varying CXCL11, fixed peptide concentration
T1 sequence (P49682 1-368): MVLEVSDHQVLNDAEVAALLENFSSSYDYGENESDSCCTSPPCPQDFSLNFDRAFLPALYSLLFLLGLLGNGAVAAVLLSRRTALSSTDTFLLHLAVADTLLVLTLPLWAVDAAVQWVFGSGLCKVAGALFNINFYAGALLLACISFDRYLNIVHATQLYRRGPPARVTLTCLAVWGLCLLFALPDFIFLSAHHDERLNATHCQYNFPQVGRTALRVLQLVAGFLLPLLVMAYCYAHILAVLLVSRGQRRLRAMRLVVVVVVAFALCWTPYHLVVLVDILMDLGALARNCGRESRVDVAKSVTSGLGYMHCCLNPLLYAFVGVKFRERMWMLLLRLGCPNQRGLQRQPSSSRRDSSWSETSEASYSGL
Text: (§1) Tango™ CXCR3-bla U2OS cells contain the human chemokine (C-X-C motif) receptor 3 linked to a TEV protease site and a Ga14-VP16 transcription factor stably integrated into the Tango™ GPCR-bla U2OS cell line. This parental cell line stably expresses a beta-arrestin/TEV protease fusion protein and the beta-lactamase reporter gene under the control of a UAS response element. The Tango™ CXCR3-bla U2OS cells have been functionally validated for a response to I-TAC (CXCL11).
Positive allosteric modulation was confirmed with an additional test method using a dose response setting for CXCL11. In positive allosteric modulator assay method 2 (PAM2), cells were diluted in Assay Media to an appropriate cell density, and were added to the assay plate. CXCR3-bla U2OS were stimulated with varying concentrations of CXCL11 ligand and a pre-determined fixed concentration of either SG-3-00802 or SG-3-06683 and incubated for 30 minutes. Ligand (CXCL9, CXCL10, or CXCL11) was added at increasing concentrations to wells containing the test compound.

Chemokine receptors = assay: LRC-TriCEPS LC-MS/MS identification of binding partners; details: living cells, LRC-TriCEPS crosslinker
Method: SG-3-00802 binding partners were identified using the mass spectrometry-based proteomics (LC MS/MS)-based LRC-TriCEPS™ technology from DualSystems. To enrich for binding partners the ligand was coupled with the LRC-TriCEPS™ crosslinker and incubated with living cells that expressed target receptors. The enriched proteins were purified and processed for analysis by LC-MS/MS. A parallel experiment using transferrin as control ligand enabled the relative quantification of the enriched proteins. Putative binding partners of SG-3-00802 enriched over transferrin ligand are depicted in a volcano plot (FIG. 3).

[1] = molecular target: T2, human chemokine (C-X-C motif) receptor 3 (Homo sapiens, UniProt P49682); assay: Positive allosteric modulator assay method 1 (PAM1), Tango CXCR3-bla U2OS; format: cell-based
T2 construct: TEV protease site; Gal4-VP16 transcription factor ('Ga14-VP16' [sic]); Tango cell line; host or cells: Tango GPCR-bla U2OS
T2 sequence (P49682 1-368): T1 sequence (P49682 1-368)
Text: To assay positive allosteric modulator activity of SG-3-00802 (SEQ ID NO: 1) and SG-3-006683 in CXCR3 cell lines, the cell line Tango™ CXCR3-bla U2OS was used in a positive allosteric modulator assay with two different methods, as described below.
as §1
In positive allosteric modulator assay method 1 (PAM1), cells were diluted in Assay Media to an appropriate cell density and were added to the assay plate. Peptides were added at increasing concentrations (1 nM-20 mcM) to the cells in the assay plate and incubated for 30 minutes. Ligand (CXCL9, CXCL10, or CXCL11) was added at an EC20 to all wells containing test compound. The assay plate was incubated for 16 hours at 37° C. Substrate Loading Solution was added to the assay plate and incubated for 2 hours at room temperature, in the dark. The assay plate was read on a fluorescence plate reader and the data was analyzed. PAM activity was calculated as follows:
% of PAM=((Test compound−Unstimulated)/(Stimulated−Unstimulated))×100.

RENCA cells = assay: RENCA re-challenge study; format: in vivo, Balb/c mice
Method: Additional studies were performed to test survival and tumor volume responses to a re-challenge event. In one study, mice were allocated into dosing groups when tumors reached ˜100 mm^3. During the initial dosing study, time 0 was the first day of seven days of dosing. […] Re-implantation was completed on day 39 after dosing completion. Treated mice were tumor free for >20 days before being re-challenge. […] Tumor volume and survival was monitored as previously described. In the re-challenge experiment, time 0 is day 10 after re-challenge dosing.

RENCA tumor model = assay: CXCL10 and CD8a levels in RENCA tumor bearing mice; format: in vivo, Balb/c mice; details: 2.5 mg/kg BID peritumorally for 7d
Method: Several mechanism of action related endpoints were also measured in vivo. Balb/c mice were implanted with RENCA cells and treated with candidate lead peptides and control compounds. Dosing occurred during the 1st week only: SG-3-00802 was dosed peritumorally at 2.5 mg/kg BID for 7d, anti-PD-1 was dosed i.p. at 10 mg/kg TIW for a total of 3 doses.

[2] = tested on: moDCs and allogeneic T cells; assay: Mixed lymphocyte reaction (MLR) cytokine release; format: cell-based
Method: Twenty-four hours later, T cells isolated from allogeneic donors were added to the moDCs with the peptide of interest, SG-3-00802 or SG-3-05021, alone or in combination with anti-PD-L1 monoclonal antibody. The co-culture of cells was incubated for 72 hours, after which cell supernatants were harvested and analyzed for secretion of cytokines, IFN-g and TNF-α. […] Data shown for experiment conducted in >4 Donor PBMCs.

MKVRPSVKPMCEKCKIIRRKGRVMVICENPKHKQRQG [SG-3-00802]
activity of CXCL11 on the CXCR3 receptor (PAM2) (CXCR3): enhanced the activity of the endogenous ligand CXCL11
binding partners enriched over transferrin ligand (Chemokine receptors): Chemokine receptors
activity of CXCR3 in presence of ligand (PAM1) ([1]; CXCL9 at EC20): enhanced activity of CXCR3
activity of CXCR3 in presence of ligand (PAM1) ([1]; CXCL10 at EC20): enhanced activity of CXCR3
activity of CXCR3 in presence of ligand (PAM1) ([1]; CXCL11 at EC20): enhanced activity of CXCR3
rejection of newly implanted tumors (RENCA cells; peptide alone): rejected newly implanted tumors
percent of mice surviving after re-challenge (RENCA cells; previously dosed in combination with anti-PD-1): increased percent of mice surviving
percent of mice surviving after re-challenge (RENCA cells; previously dosed with peptide alone): increased percent of mice surviving
# of animals without tumor progression out of re-challenged animals per group (re-challenge study) (RENCA cells; re-challenge study): 2/2
rejection of newly implanted tumors (RENCA cells; with anti-PD-1 antibody combinatorial treatment): rejected newly implanted tumors
CD8a expression in the tumor (RENCA tumor model): increase in CD8a expression
expression of CXCL10 in the tumor (RENCA tumor model): increased expression of CXCL10 in the tumor
serum levels of CXCL10 (RENCA tumor model): increased serum levels of CXCL10

LGKTDWIEKYFKVKKEKIDKMQRFLQG (peptide for immunotherapy; SG-3-05021)
IFN-γ secretion ([2]; after stimulation with anti-CD40, in combination with anti-PD-L1, 72 hours): increase in IFN-γ
IFN-γ secretion ([2]; after stimulation with anti-CD40, peptide alone, 72 hours): increase in IFN-γ

Reference: US20240317816A1, “PEPTIDES FOR IMMUNOTHERAPY” (Genevive, Inc., priority 2021, published 2024)
